{
  "source": "patent US20190046627A1",
  "about": "“USE OF A GNP-LLO91-99 COMPLEX FOR THE TREATMENT AND PREVENTION OF CANCER” (FUNDACIÓN INSTITUTO DE INVESTIGACIÓN MARQUES DE VALDECILLA, priority 2016, published 2019)",
  "key": {"murine melanoma B16F10 [1]": {"tested_on": "murine melanoma B16F10", "experiment": "Reduction of the size of the tumor, subcutaneous murine melanoma in adult mice (Example 2)", "format": "in vivo", "conditions": "adult C57BL/6 mice, s.c. B16F10 established 7 days, 50 μg/ml inoculated in the tumors for 5 days", "protocol": "(§1) For the study of the reduction of the size of the tumor making use of different therapies and their comparison with that of the invention, 1×10^6 cells of murine melanoma B16F10 were inoculated in a subcutaneous manner in the left ventral flank of 8-12-week old female mice of the C57BL/6 strain.\n(§2) After 7 days post-inoculation, 50 μg/ml of the following therapies were inoculated in the tumors for 5 days: LLO91-99 (only peptide from listeriolysin O of Listeria monocytogenes, LLO91-99), GNP (empty gluconanoparticles), GNP-LLO91-99 (gluconanoparticles synthesized with the peptide from listeriolysin O of Listeria monocytogenes, LLO91-99), GNP-GAPDH1-22 (nanoparticles synthesized with the peptide from glyceraldehyde-3-phosphate dehydrogenase of Listeria monocytogenes, GAPDH1-22) or no particle (NT). Dendritic cells loaded with the LLO91-99 (1×10^6 DC-LLO91-99) peptide were also included as a control, a vector previously used in therapy.\n(§3) Following this treatment, the mice were sacrificed and the tumors recovered, measuring their size with a gauge."}, "murine melanoma B16OVA": {"tested_on": "murine melanoma B16OVA", "experiment": "Prevention of tumor growth, intraperitoneal melanoma after preventive treatment (Example 5)", "format": "in vivo, mice", "conditions": "50 μg/ml intraperitoneal 7 days before i.p. B16OVA, adult C57BL/6", "protocol": "For the comparative study of the prevention of tumor growth in adults between the therapy of the invention and known anti-tumor therapies, the following therapies (50 μg/ml) were inoculated in female adults of the C57BL/6 strain in an intraperitoneal manner: LLO91-99 (only peptide from listeriolysin O of Listeria monocytogenes, LLO91-99), GNP (empty gluconanoparticles), GNP-LLO91-99 (gluconanoparticles synthesized with the peptide from listeriolysin O of Listeria monocytogenes, LLO91-99), GNP-GAPDH1-22 (nanoparticles synthesized with the peptide from glyceraldehyde-3-phosphate dehydrogenase of Listeria monocytogenes, GAPDH1-22) or saline (NT).\nFollowing 7 days preventative post-treatment, the tumors were established following inoculation with 5×10^6 cells of murine melanoma B16OVA in an intraperitoneal manner. Following 7 days post-established of the tumor, the mice were sacrificed and the recovered tumors were measured by means of a gauge and the tumors were analyzed by means of immunohistochemical staining. The results of the reduction of the tumor growth and their intraperitoneal position are shown in FIG. 4A and FIG. 4B and the results of the analysis of the immunohistochemical staining in FIG. 4C."}, "murine melanoma B16F10 [2]": {"tested_on": "murine melanoma B16F10", "experiment": "Reduction of the size of the tumor in newborns (Example 6)", "format": "in vivo", "conditions": "9-day old Balb/c mice, s.c. B16F10 established 5 days, 50 μg/ml in the tumors for 5 days", "protocol": "as §1, with “tumor in newborns” for “tumor”, “5×10^5” for “1×10^6”, “interscapular area” for “left ventral flank”, “9-day” for “8-12-week”, “Balb/c” for “C57BL/6”\nas §2, with “Following 5” for “After 7”, “GAPDH1-22). As” for “GAPDH1-22) or no particle (NT). Dendritic cells loaded with the LLO91-99 (1×10^6 DC-LLO91-99) peptide were also included as”, “therapy was also included, dendritic cells loaded with the LLO91-99 (1×10^5 DC-LLO91-99) peptide.” for “therapy.”\nas §3"}},
  "note": "“Also recorded” adds a separate entry of the source.",
  "data": [
    {"substance": "H-Gly-Tyr-Lys-Asp-Gly-Asn-Glu-Tyr-Ile-OH (H-GYKDGNEYI-OH) [LLO91-99, only peptide from listeriolysin O of Listeria monocytogenes, LLO91-99]", "values": [
      {"measurement": "therapeutic effect on the melanoma (in words)", "setting": "murine melanoma B16F10 [1]", "value": "do not achieve any therapeutic effect; also recorded: failed to achieve any therapeutic effect"},
      {"measurement": "preventative / therapeutic effect on the melanoma (in words)", "setting": "murine melanoma B16OVA", "value": "failed to achieve any therapeutic effect"},
      {"measurement": "therapeutic effect on the melanoma in newborns (in words)", "setting": "murine melanoma B16F10 [2]", "value": "failed to achieve any therapeutic effect"}
    ]}
  ]
}
